Structures are written as SMILES.

The nature of series [1]: Phototoxicity against mouse BALB/3T3 clone A31 cells assessed as photo-irradiation factor incubated for 1 hr followed by irradiated with 5 J/cm^2 of light dose measured after 24 hrs by neutral red uptake assay. Conditions: balb/3t3 clone a31, 1 h; call rule not given here. The series is classed as toxicity, cell-based.
A short description of series [2]: Clearance in C57BL/6 mouse at 1 mg/kg, iv and 3 mg/kg, ip measured upto 24 hrs by HPLC-MS analysis. The series is classed as ADME, organism-based. The conditions noted are these: in vivo.
Series [3] in a line: In vivo inhibition of phosphorylation of S6 at serine 240/244 residues in C57BL/6 mouse brain at 10 to 30 mg/kg, po measured after 1 to 3 hrs by Western blotting analysis. The series is classed as organism-based. The conditions noted are these: dose lower 10 mg/kg, time lower 1 hrs, dose upper 30 mg/kg, time upper 3 hrs.
A short description of series [4]: In vivo inhibition of phosphorylation of AKT at serine 473 residues in C57BL/6 mouse brain at 10 to 30 mg/kg, po measured after 3 hrs by Western blotting analysis. The conditions noted are these: dose 10-30 mg/kg. The series is classed as organism-based.
The nature of series [5]: In vivo inhibition of phosphorylation of AKT at serine 473 residues in C57BL/6 mouse brain at 10 to 30 mg/kg, po measured after 24 hrs by Western blotting analysis. The conditions noted are these: dose 10-30 mg/kg. The series is classed as organism-based.
Series [6] can be described thus: AUC(0 to t) in Beagle dog at 0.3 mg/kg, iv measured upto 24 hrs by LC/MS/MS analysis. The series is classed as ADME, organism-based, Canis lupus familiaris. Also on record: time < 24 hrs, dose 0.3 mg/kg, route iv. Conditions: in vivo.
A short description of series [7]: AUC(0 to t) in Beagle dog at 1 mg/kg, po measured upto 24 hrs by LC/MS/MS analysis. The series is classed as ADME, organism-based, Canis lupus familiaris. Also on record: time < 24 hrs, dose 1 mg/kg, route po. The conditions noted are these: in vivo.
Series [8] can be described thus: Bioavailability in Beagle dog at 1 mg/kg, po and 0.3 mg/kg, iv measured upto 24 hrs by LC/MS/MS analysis. The series is classed as ADME, organism-based, Canis lupus familiaris. The conditions noted are these: in vivo.
The nature of series [9]: Volume of distribution at steady state in Beagle dog at 1 mg/kg, po and 0.3 mg/kg, iv measured upto 24 hrs by LC/MS/MS analysis. The series is classed as ADME, organism-based, Canis lupus familiaris. Conditions: in vivo.
The nature of series [10]: Half life in Beagle dog at 1 mg/kg, po and 0.3 mg/kg, iv measured upto 24 hrs by LC/MS/MS analysis. The conditions noted are these: in vivo. The series is classed as ADME, organism-based, Canis lupus familiaris.
Series [11] can be described thus: MRT(0 to t) in Beagle dog at 1 mg/kg, po and 0.3 mg/kg, iv measured upto 24 hrs by LC/MS/MS analysis. The series is classed as ADME, organism-based, Canis lupus familiaris. The conditions noted are these: in vivo.
The nature of series [12]: AUC(0 to t) in cynomolgus monkey at 0.3 mg/kg, po measured upto 24 hrs by LC/MS/MS analysis. The conditions noted are these: in vivo. Also on record: dose 0.3 mg/kg, time < 24 hrs, route po. The series is classed as ADME, organism-based, Macaca fascicularis.
Series [13] can be described thus: Cmax in cynomolgus monkey at 0.3 mg/kg, po measured upto 24 hrs by LC/MS/MS analysis. Also on record: dose 0.3 mg/kg, time < 24 hrs, route po. Conditions: in vivo. The series is classed as ADME, organism-based, Macaca fascicularis.
Series [14] in a line: Tmax in cynomolgus monkey at 0.3 mg/kg, po measured upto 24 hrs by LC/MS/MS analysis. The series is classed as ADME, organism-based, Macaca fascicularis. Conditions: in vivo.
A short description of series [15]: In vivo inhibition of phosphorylation of S6 at serine 240/244 residues in C57BL/6 mouse brain at 3 to 10 mg/kg, po measured after 8 hrs by Western blotting analysis. The series is classed as organism-based. Conditions: dose 3-10 mg/kg.
Series [16] in a line: In vivo inhibition of phosphorylation of S6 at serine 240/244 residues in C57BL/6 mouse brain at 30 mg/kg, po measured after 24 hrs by Western blotting analysis. The series is classed as organism-based.
Series [17] can be described thus: In vivo inhibition of phosphorylation of AKT at serine 473 residues in C57BL/6 mouse brain at 10 mg/kg, po measured after 8 hrs by Western blotting analysis. The series is classed as organism-based.
A short description of series [18]: In vivo inhibition of phosphorylation of AKT at serine 473 residues in C57BL/6 mouse brain at 30 mg/kg, po measured after 24 hrs by Western blotting analysis. The series is classed as organism-based.
The nature of series [19]: Drug concentration in C57BL/6 mouse plasma at 1 mg/kg, po measured after 1 hr. The series is classed as ADME, organism-based.
Series [20] can be described thus: Drug concentration in C57BL/6 mouse brain at 3 mg/kg, po measured after 1 hr. The series is classed as ADME, organism-based. The conditions noted are these: read-out: Ct.
Series [21] can be described thus: Ratio of drug concentration in brain to plasma in C57BL/6 mouse at 3 mg/kg, po measured at 1 hr. The series is classed as ADME, organism-based. The conditions noted are these: read-out: BPR.
A short description of series [22]: Drug concentration in C57BL/6 mouse brain at 1 mg/kg, po measured after 3 hrs. The series is classed as ADME, organism-based. Conditions: read-out: Ct.
Series [23] can be described thus: Drug concentration in C57BL/6 mouse plasma at 1 mg/kg, po measured after 3 hrs. The series is classed as ADME, organism-based.
A short description of series [24]: Ratio of drug concentration in brain to plasma in C57BL/6 mouse at 1 mg/kg, po measured at 3 hrs. The series is classed as ADME, organism-based. Conditions: read-out: BPR.
Series [25] can be described thus: Drug concentration in C57BL/6 mouse brain at 3 mg/kg, po measured after 3 hrs. The series is classed as ADME, organism-based. Conditions: read-out: Ct.
The nature of series [26]: Ratio of drug concentration in brain to plasma in C57BL/6 mouse at 3 mg/kg, po measured at 3 hrs. The series is classed as ADME, organism-based. Conditions: read-out: BPR.
Series [27] in a line: Drug concentration in C57BL/6 mouse brain at 1 mg/kg, po measured after 8 hrs. Conditions: read-out: Ct. The series is classed as ADME, organism-based.
Series [28] can be described thus: Ratio of drug concentration in brain to plasma in C57BL/6 mouse at 1 mg/kg, po measured at 8 hrs. The series is classed as ADME, organism-based. Conditions: read-out: BPR.
The nature of series [29]: Drug concentration in C57BL/6 mouse brain at 3 mg/kg, po measured after 8 hrs. The series is classed as ADME, organism-based. Conditions: read-out: Ct.
The nature of series [30]: Drug concentration in C57BL/6 mouse plasma at 3 mg/kg, po measured after 8 hrs. The series is classed as ADME, organism-based.
A short description of series [31]: Drug concentration in C57BL/6 mouse brain at 10 mg/kg, po measured after 8 hrs. The series is classed as ADME, organism-based. Conditions: read-out: Ct.
The nature of series [32]: Drug concentration in C57BL/6 mouse plasma at 10 mg/kg, po measured after 8 hrs. The series is classed as ADME, organism-based.
Series [33] is described as follows: Ratio of drug concentration in brain to plasma in C57BL/6 mouse at 10 mg/kg, po measured at 8 hrs. The conditions noted are these: read-out: BPR. The series is classed as ADME, organism-based.
Series [34] is described as follows: Drug concentration in C57BL/6 mouse brain at 30 mg/kg, po measured after 8 hrs. The series is classed as ADME, organism-based. The conditions noted are these: read-out: Ct.
A short description of series [35]: Drug concentration in C57BL/6 mouse plasma at 30 mg/kg, po measured after 8 hrs. The series is classed as ADME, organism-based.
A short description of series [36]: Drug concentration in C57BL/6 mouse plasma at 1 mg/kg, po measured after 24 hrs. The series is classed as ADME, organism-based.
A short description of series [37]: Ratio of drug concentration in brain to plasma in C57BL/6 mouse at 1 mg/kg, po measured after 24 hrs. The series is classed as ADME, organism-based. Conditions: read-out: BPR.
Series [38] is described as follows: Drug concentration in C57BL/6 mouse brain at 3 mg/kg, po measured after 24 hrs. The series is classed as ADME, organism-based. Conditions: read-out: Ct.
Series [39] is described as follows: Drug concentration in C57BL/6 mouse plasma at 3 mg/kg, po measured after 24 hrs. The series is classed as ADME, organism-based.
Series [40] is described as follows: AUC(0 to t) in cynomolgus monkey at 0.1 mg/kg, iv measured upto 24 hrs by LC/MS/MS analysis. The series is classed as ADME, organism-based, Macaca fascicularis. Also on record: dose 0.1 mg/kg, time < 24 hrs, route iv. Conditions: in vivo.
The nature of series [41]: Cmax in cynomolgus monkey at 1 mg/kg, po measured upto 24 hrs by LC/MS/MS analysis. The series is classed as ADME, organism-based, Macaca fascicularis. Also on record: time < 24 hrs, dose 1 mg/kg, route po. Conditions: in vivo.
Series [42] can be described thus: AUC(0 to t) in cynomolgus monkey at 1 mg/kg, po measured upto 24 hrs by LC/MS/MS analysis. The series is classed as ADME, organism-based, Macaca fascicularis. Also on record: time < 24 hrs, dose 1 mg/kg, route po. Conditions: in vivo.
A short description of series [43]: Bioavailability in cynomolgus monkey at 1 mg/kg, po and 0.1 mg/kg, iv measured upto 24 hrs by LC/MS/MS analysis. The conditions noted are these: in vivo. The series is classed as ADME, organism-based, Macaca fascicularis.
Series [44] in a line: MRT(0 to t) in cynomolgus monkey at 1 mg/kg, po and 0.1 mg/kg, iv measured upto 24 hrs by LC/MS/MS analysis. The series is classed as ADME, organism-based, Macaca fascicularis. The conditions noted are these: in vivo.

As to `C[C@@H]1COCCN1c1cc(N2CCOC[C@@H]2C)nc2[nH]c(-c3ccccn3)nc12`, in [1], the Activity was 1. In addition, in series [2], the clearance stood at 19 mL/min/kg. Further, the “inhibition (INH)” value in series [3] was “Active”; in series [4] it was “Active”; in series [5], “Not Active”. The AUC(0-t) at 24 h in [6] is 0.147 µM·h; in [7], 0.056 µM·h; in series [12], 0.125 µM·h. Besides, the bioavailability in series [8] worked out at 11%. In [9], this compound showed a Vdss of 4.3 L/kg. In series [10], this compound had a half-life of 1.9 h. This compound also showed an MRT last at 24 h in series [11] of 0.9 h. For the same compound, in series [13], the concentration peaked (Cmax) at 13 nM. Besides, in [14], the Tmax was 1.2 h.

`C[C@@H]1COCCN1c1cc(N2CCOC[C@@H]2C)nc2[nH]c(-c3cscn3)nc12`: the “inhibition (INH)” value in [15], in series [16], in series [17] and in series [18] was “Active” throughout. Also, the concentration at 1 h in series [19] was determined as 766 nM; in [20] it was 1400 nM. For the same compound, the Kp at 1 h in series [21] came to 0.51. Further, the concentration at 3 h in series [22] amounted to 240 nM; in series [23], 674 nM; in [25], 930 nM. Also, the Kp at 3 h is 0.36 in [24] and 0.45 in series [26]. The concentration at 8 h was 90 nM in series [27]; 341 nM in series [29]; 1190 nM in [30]; 230 nM in series [31]; 406 nM in [32]; 462 nM in [34]. The same compound displayed a concentration at 8 h in series [35] of 632 nM. Moreover, the Kp at 8 h in series [28] stood at 0.37; in [33], 0.57. Moreover, the concentration at 24 h is 4 nM in series [36], 5 nM in series [38] and 6 nM in series [39]. Besides, the Kp at 24 h in [37] stood at 1.91. Moreover, the values for the AUC(0-t) at 24 h in series [40] and in [42] were 0.34 µM·h and 3.75 µM·h, respectively. In series [41], this compound gave a Cmax of 468 nM. The bioavailability in series [43] came out at 110%. The MRT last at 24 h in [44] is 4.2 h.

The values are drawn from ChEMBL document CHEMBL5331134, “Identification of Brain-Penetrant ATP-Competitive mTOR Inhibitors for CNS Syndromes” (J Med Chem, 2023).
